The record followed here is publication PMC4436076 (mBio, 2015).

Type in all cases: cell-based
The test system of experiment [1] is M. smegmatis. As to the kind of experiment: microbe, parasite or virus in culture.
The subject of experiment [2] is Mycobacterium bovis BCG. Description: microbe, parasite or virus in culture.
Experiment [3] deals with M. tuberculosis H37Rv. As to the kind of experiment: microbe, parasite or virus in culture. The settings on record: Mycobacterium tuberculosis, 120 h.
In experiment [4] the test system is WT M. smegmatis. The settings on record: subinhibitory, 24 h, OD600.
Experiment [5] relates to caseinolytic protease substrate WhiB1 (M. smegmatis pTet-GFP-WhiB1).
Experiment [6] has as its system M. smegmatis.

In brackets after ≈: the same amount, converted by molar mass. Peptide text beside a SMILES is read from it. * marks the point of attachment. Cbz = O=C(OCc1ccccc1)*

In the case of `CC(C)C[C@H](NC(=O)[C@@H](NC(=O)c1cccc(-c2ccccc2)n1)[C@@H](C)O)B(O)O` [CEP-18770], the “Growth inhibition of WT M. smegmatis, in words” value in experiment [1] is “same potent growth inhibition as BZ”. Moreover, the “Growth inhibition of WT M. bovis, in words” value in experiment [2] is listed as “strongest growth inhibition”.

As to `CC(C)C[C@@H](C=O)NC(=O)[C@H](CC(C)C)NC(=O)[C@H](CC(C)C)NC(=O)OCc1ccccc1` [MG-132] (Cbz-Leu-Leu-Leu-aldehyde), the “Growth inhibition of WT M. smegmatis, in words” value in experiment [1] is given as “completely abrogated”. Further, the “Growth inhibition of WT M. bovis, in words” value in experiment [2] is “no response”.

For `CC(C)C[C@H](NC(=O)CNC(=O)c1cc(Cl)ccc1Cl)B(O)O` [MNL-2238], the “Growth inhibition of WT M. smegmatis, in words” value in experiment [1] is “weaker growth inhibition”.

`CC(C)C[C@H](NC(=O)CNC(=O)c1cc(Cl)ccc1Cl)B1OC(=O)C(CC(=O)O)(CC(=O)O)O1` [MNL-9708]: the “Growth inhibition of WT M. smegmatis, in words” value in experiment [1] is given as “active”.

Regarding `CC(C)C[C@H](NC(=O)[C@H](Cc1ccccc1)NC(=O)c1cnccn1)B(O)O` [compound 100, bortezomib], the MIC50 in experiment [3] amounted to 0.8 µM (≈ 0.307 µg/mL); in experiment [1] (Mycolicibacterium smegmatis, 24 h) it was 4 µM (≈ 1.54 µg/mL); in experiment [2] (Mycobacterium tuberculosis variant bovis BCG, BCG, 120 h), 0.3 µM (≈ 0.115 µg/mL). The “Growth inhibition in combination with amikacin” value in experiment [4] (BZ 1.5 µM + amikacin 0.4 µM) is listed as “complete growth inhibition”. Also, the Potentiation of chloramphenicol entry in experiment [4] (BZ 1.5 µM + chloramphenicol 4.5 µM) was “no potentiation effect”. Also, in experiment [4] (BZ 1.5 µM + streptomycin 0.05 µM), the “Growth inhibition in combination with streptomycin” value is “complete growth inhibition”. In addition, the “Growth inhibition of WT M. smegmatis, in words” value in experiment [1] is reported as “showed an effect”. Moreover, the GFP-WhiB1 fluorescence entry in experiment [5] was “increased fluorescence in a dose-dependent manner”. Further, the “MBC90 (minimum bactericidal concentration that kills 90% of an initial inoculum)” value in experiment [6] was 30 µM. Also, the “Growth inhibition of WT M. bovis, in words” value in experiment [2] is listed as “strongest growth inhibition”.
